Literature values, collected in publication PMC8966651, “PKPD Modeling of the Inoculum Effect of Acinetobacter baumannii on Polymyxin B in vivo” (Frontiers in Pharmacology, 2022).
Like-named read-outs stand apart in the source and are kept apart here.

Tests used:
E. coli [1] = details: cited from earlier work; for E. coli MICs at initial inoculum 10^7 CFU/ml compared to 10^5 CFU/ml: in vitro
Description: The clinical relevance of in vitro IE has been questioned in previous studies ([Maglio et al., 2004]; [Maglio et al., 2005]; [Fantin et al., 2019]).

E. coli [2] = details: murine thigh infection model; ref de Araujo et al., 2011; cited from earlier work
Description: An innovative aspect of this study was the refinement of a PKPD model, based on the model developed after in vitro TK experiments conducted with A. baumannii and PMB ([Akrong et al., 2021]). […] The different growth behavior between in vitro and in vivo has been associated in literature ...

A. baumannii = details: initial inoculum of A. baumannii increased from 10^7 to 10^8 CFU/lung; ref Lin et al., 2018; cited from earlier work
Description: Yet the IE of A. baumannii on polymyxins in vivo remains to be investigated. […] But IE was only investigated on rare occasions in vivo, with antibiotics such as marbofloxacin ([Ferran et al., 2009]), piperacillin-tazobatam ([Harada et al., 2014]), ertapenem ([Maglio et al., 2005]), meropenem ([Mizunaga et al., 2005]) or colistin ([Fantin et al., 2019]) against various Gram-negative pathogens such as E. coli, K. pneumoniae ...

CO/N=C(\C(=O)N[C@@H]1C(=O)N2C(C(=O)[O-])=C(C[N+]3(C)CCCC3)CS[C@H]12)c1csc(N)n1 [cefepime]
E. coli MICs at initial inoculum 10^7 CFU/ml compared to 10^5 CFU/ml (E. coli [1]; ref Maglio et al., 2004): elevations of E. coli MICs
inoculum effect (IE) in vivo (E. coli [1]; neutropenic mouse thigh infection model, ref Maglio et al., 2004): no IE was observed in vivo

C[C@@H](O)[C@H]1C(=O)N2C(C(=O)O)=C(S[C@@H]3CN[C@H](C(=O)Nc4cccc(C(=O)O)c4)C3)[C@H](C)[C@H]12 [ertapenem]
E. coli MICs at initial inoculum 10^7 CFU/ml compared to 10^5 CFU/ml (E. coli [1]; ref Maglio et al., 2005): elevations of E. coli MICs
inoculum effect (IE) in vivo (E. coli [1]; neutropenic mouse thigh infection model, ref Maglio et al., 2005): no IE was observed in vivo

CCN1CCN(C(=O)N[C@@H](C(=O)N[C@@H]2C(=O)N3[C@@H]2SC(C)(C)[C@@H]3C(=O)O)c2ccccc2)C(=O)C1=O [piperacillin]
maximum killing effect in vivo as compared to in vitro (E. coli [2]): two times smaller

colistin
inoculum effect (IE) in vivo (E. coli [1]; mice infected with E. coli, ref Fantin et al., 2019): observed an in vivo IE
efficacy of nebulized colistin with increasing inoculum (A. baumannii): decrease in the efficacy
